Data published in paper PMC7225226, “Fluorescence labeling of a NaV1.7-targeted peptide for near-infrared nerve visualization” (EJNMMI Research, 2020).
Several values for one entry are separate records, joined by “and”; a condition that tells them apart may be missing. Equal values may be shown once.

Legend:
mouse sciatic nerve = assay: Epifluorescence imaging of resected sciatic nerves after intravenous injection; format: in vivo; details: 30 min post-injection
Experimental: (§1) Female athymic nude mice (4–8 weeks old, athymic-nude (outbred) (stock#:088; Envigo, USA) were allowed to acclimatize at the MSKCC vivarium for 1 week with ad libitum food and water prior to the experimental procedure. For imaging experiments, animals were sacrificed 30 min post-tail vein injection of Hs1a-FL, Hs1a/Hs1a-FL, or PBS. All animal experiments were performed in accordance with institutional guidelines and approved by the MSKCC Institutional Animal Care and Use Committee, following the NIH guidelines for animal welfare.
(§2) One group of animals was intravenously injected with Hs1a-FL (4 nmol, 45 μM of Hs1a-FL in 100 μL of PBS, n = 3). A second group of animals was injected with Hs1a and Hs1a-FL (Hs1a-FL, 45 μM, 4 nmol and Hs1a, 120 μM, 12 nmol in 100 μL PBS, n = 3) or PBS (n = 3). Animals were sacrificed 30 min post-injection and epifluorescence images obtained. Epifluorescence images of the right sciatic nerve (RSN) and left sciatic nerve (LSN) were obtained in situ from all the mice in the study. Epifluorescence images of the biodistribution included RSN, LSN, muscle, heart, kidney, liver, and brain and were acquired with an IVIS Spectrum imaging system (PerkinElmer) using a predetermined filter set (excitation = 710/45 nm, emission = 800–820 nm). […]
(§3) Statistical analyses were performed using GraphPad Prism 8. […] All p values were calculated using an unpaired t test. […]

[1] = Ex vivo epifluorescence biodistribution in organs; design: species or system mouse; details: 30 min post-injection
Experimental: as §1
One group of animals was intravenously injected with Hs1a-FL (4 nmol, 45 μM of Hs1a-FL in 100 μL of PBS, n = 3). A second group of animals was injected with Hs1a and Hs1a-FL (Hs1a-FL, 45 μM, 4 nmol and Hs1a, 120 μM, 12 nmol in 100 μL PBS, n = 3) or PBS (n = 3). Animals were sacrificed 30 min post-injection and epifluorescence images obtained. Epifluorescence images of the right sciatic nerve (RSN) and left sciatic nerve (LSN) were obtained in situ from all the mice in the study. Epifluorescence images of the biodistribution included RSN, LSN, muscle, heart, kidney, liver, and brain and were acquired with an IVIS Spectrum imaging system (PerkinElmer) using a predetermined filter set (excitation = 710/45 nm, emission = 800–820 nm). Autofluorescence was removed through spectral unmixing. Semiquantitative analysis of the Hs1a-FL signal was conducted by measuring the average radiant efficiency (in units of [p/s/cm^2/sr]/[μW/cm^2]) in regions of interest (ROIs) that were placed on all resected nerves and as well in all organs from the biodistribution under white light guidance.
Statistical analyses were performed using GraphPad Prism 8. Unless otherwise stated, data points represent mean values, and error bars represent standard deviations of biological replicates. All p values were calculated using an unpaired t test. Statistical significance was considered for p values < 0.05 and as follows: ns = not significant, *p < 0.05, **p < 0.01, ***p < 0.001.

NaV1.7 = assay: Binding to NaV1.7 in vivo post-intravenous injection, blocked by excess unlabeled Hs1a; design: species or system mouse
Experimental: as §1
For the confocal microscopy experiments, 5 μm cryosections of sciatic nerve tissues embedded in optimal cutting temperature compound (OCT) were used to determine the distribution and localization of Hs1a-FL from mice previously injected with the fluorescent agent Hs1a-FL (4 nmol, 45 μM of Hs1a-FL in 100 μL of PBS), the blocking solution Hs1a/Hs1a-FL (Hs1a-FL, 45 μM, 4 nmol and Hs1a 120 μM, 12 nmol in 100 μL PBS), or 100 μL of PBS. These resected nerves were incubated with Hoechst 33342 (20 μM, 1 nmol in 50 μL of PBS) to counterstain nuclei, which were subsequently embedded in Mowiol mounting medium. Fresh tissues were counterstained with Hoechst 33342 (20 μM, 1 nmol in 50 μL of PBS) and samples placed directly on a microscope slide for detection of the fluorescence signal of the fluorescent peptide. […]

nerve and muscle = assay: Nerve-to-muscle comparison, epifluorescence; format: in vivo, mouse
Experimental: as §1, §2, §3

[2] = system: mouse sciatic nerve (NaV1.7); assay: Confocal microscopy of sciatic nerve after intravenous injection; format: in vivo; details: i.v. Hs1a-FL 4 nmol (45 μM in 100 μL PBS), with or without Hs1a 12 nmol (120 μM, 3-fold molar excess); 30 min post-injection; athymic nude mice
Experimental: as §1
For the confocal microscopy experiments, 5 μm cryosections of sciatic nerve tissues embedded in optimal cutting temperature compound (OCT) were used to determine the distribution and localization of Hs1a-FL from mice previously injected with the fluorescent agent Hs1a-FL (4 nmol, 45 μM of Hs1a-FL in 100 μL of PBS), the blocking solution Hs1a/Hs1a-FL (Hs1a-FL, 45 μM, 4 nmol and Hs1a 120 μM, 12 nmol in 100 μL PBS), or 100 μL of PBS. These resected nerves were incubated with Hoechst 33342 (20 μM, 1 nmol in 50 μL of PBS) to counterstain nuclei, which were subsequently embedded in Mowiol mounting medium. Fresh tissues were counterstained with Hoechst 33342 (20 μM, 1 nmol in 50 μL of PBS) and samples placed directly on a microscope slide for detection of the fluorescence signal of the fluorescent peptide.

neuronal sodium channels = assay: Affinity for neuronal sodium channels (summary statement); format: cell-based, human; details: automated patch-clamp, HEK293 cells
Experimental: (§4) HEK293 cells stably expressing the human NaV channel β1 subunit (hNaVβ1) in combination with the α subunit hNaV1.1, hNaV1.2, hNaV1.3, hNaV1.4, hNaV1.5, hNaV1.6, or hNaV1.7 (Scottish Biomedical, Glasgow, UK) were cultured in DMEM/F-12 media (1:1), supplemented with 10% fetal bovine serum, […] geneticin, and […] non-essential amino acids (all reagents from Invitrogen) at 37 °C and in 5% CO2.
(§5) Whole-cell patch-clamp experiments were performed at room temperature using a QPatch 16x automated electrophysiology platform (Sophion Bioscience, Denmark) using 16-channel planar patch-chip plates (QPlates) with a patch-hole diameter of 1 μm and resistance of 2 MΩ. Whole-cell currents were filtered at 5 kHz (8-pole Bessel) and digitized at 25 kHz. A P4 online leak-subtraction protocol was used with non-leak-subtracted currents acquired in parallel. The extracellular solution was 2 mM CaCl2, 1 mM MgCl2, 10 mM HEPES, 4 mM KCl, and 145 mM NaCl at pH 7.4, and the intracellular solution was 140 mM CsF, 1 mM/5 mM EGTA/CsOH, 10 mM HEPES, and 10 mM NaCl at pH 7.3. Hs1a-FL were dissolved in extracellular solution with 0.1% bovine serum albumin (BSA). Concentration-response data were obtained using five concentrations of peptide (2 nM to 10 μM). […] IC50 values were determined from non-linear regression of concentration-response data using GraphPad Prism.

hNaV1.3 = molecular target: T1, hNaV1.3 (Homo sapiens, UniProt Q9NY46); assay: Whole-cell patch-clamp, HEK293 cells stably expressing hNaV1.3; format: cell-based; details: QPatch 16x automated whole-cell patch-clamp, holding potential -60 mV, five concentrations (2 nM to 10 μM), 0.1% BSA, pH 7.4, ~22 °C; each point average of 3–11 cells
T1 construct: host or cells: HEK293
Experimental: as §4, §5

hNaV1.1 = molecular target: T2, hNaV1.1 (Homo sapiens, UniProt P35498); assay: Whole-cell patch-clamp, HEK293 cells stably expressing hNaV1.1; format: cell-based; details: QPatch 16x automated whole-cell patch-clamp, holding potential -60 mV, five concentrations (2 nM to 10 μM), 0.1% BSA, pH 7.4, ~22 °C; each point average of 3–11 cells
T2 construct: host or cells: HEK293
Experimental: as §4, §5

hNaV1.4 = molecular target: T3, hNaV1.4 (Homo sapiens, UniProt P35499); assay: Whole-cell patch-clamp, HEK293 cells stably expressing hNaV1.4; format: cell-based
T3 construct: host or cells: HEK293
Experimental: as §4, §5

hNaV1.2 = molecular target: T4, hNaV1.2 (Homo sapiens, UniProt Q99250); assay: Whole-cell patch-clamp, HEK293 cells stably expressing hNaV1.2; format: cell-based; details: QPatch 16x automated whole-cell patch-clamp, holding potential -65 mV, five concentrations (2 nM to 10 μM), 0.1% BSA, pH 7.4, ~22 °C; each point average of 3–11 cells
T4 construct: host or cells: HEK293
Experimental: as §4, §5

hNaV1.5 = molecular target: T5, hNaV1.5 (Homo sapiens, UniProt Q14524); assay: Whole-cell patch-clamp, HEK293 cells stably expressing hNaV1.5; format: cell-based
T5 construct: host or cells: HEK293
Experimental: as §4, §5

[3] = at concentrations up to 3 μM, automated patch-clamp

T3 sequence (Q07699 19-218): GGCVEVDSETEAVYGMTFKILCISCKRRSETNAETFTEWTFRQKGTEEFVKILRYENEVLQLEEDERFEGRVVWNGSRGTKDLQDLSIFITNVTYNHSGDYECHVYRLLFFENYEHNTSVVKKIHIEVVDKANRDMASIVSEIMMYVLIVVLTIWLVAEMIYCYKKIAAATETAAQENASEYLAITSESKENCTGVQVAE
T3 sequence (P35499 whole entry): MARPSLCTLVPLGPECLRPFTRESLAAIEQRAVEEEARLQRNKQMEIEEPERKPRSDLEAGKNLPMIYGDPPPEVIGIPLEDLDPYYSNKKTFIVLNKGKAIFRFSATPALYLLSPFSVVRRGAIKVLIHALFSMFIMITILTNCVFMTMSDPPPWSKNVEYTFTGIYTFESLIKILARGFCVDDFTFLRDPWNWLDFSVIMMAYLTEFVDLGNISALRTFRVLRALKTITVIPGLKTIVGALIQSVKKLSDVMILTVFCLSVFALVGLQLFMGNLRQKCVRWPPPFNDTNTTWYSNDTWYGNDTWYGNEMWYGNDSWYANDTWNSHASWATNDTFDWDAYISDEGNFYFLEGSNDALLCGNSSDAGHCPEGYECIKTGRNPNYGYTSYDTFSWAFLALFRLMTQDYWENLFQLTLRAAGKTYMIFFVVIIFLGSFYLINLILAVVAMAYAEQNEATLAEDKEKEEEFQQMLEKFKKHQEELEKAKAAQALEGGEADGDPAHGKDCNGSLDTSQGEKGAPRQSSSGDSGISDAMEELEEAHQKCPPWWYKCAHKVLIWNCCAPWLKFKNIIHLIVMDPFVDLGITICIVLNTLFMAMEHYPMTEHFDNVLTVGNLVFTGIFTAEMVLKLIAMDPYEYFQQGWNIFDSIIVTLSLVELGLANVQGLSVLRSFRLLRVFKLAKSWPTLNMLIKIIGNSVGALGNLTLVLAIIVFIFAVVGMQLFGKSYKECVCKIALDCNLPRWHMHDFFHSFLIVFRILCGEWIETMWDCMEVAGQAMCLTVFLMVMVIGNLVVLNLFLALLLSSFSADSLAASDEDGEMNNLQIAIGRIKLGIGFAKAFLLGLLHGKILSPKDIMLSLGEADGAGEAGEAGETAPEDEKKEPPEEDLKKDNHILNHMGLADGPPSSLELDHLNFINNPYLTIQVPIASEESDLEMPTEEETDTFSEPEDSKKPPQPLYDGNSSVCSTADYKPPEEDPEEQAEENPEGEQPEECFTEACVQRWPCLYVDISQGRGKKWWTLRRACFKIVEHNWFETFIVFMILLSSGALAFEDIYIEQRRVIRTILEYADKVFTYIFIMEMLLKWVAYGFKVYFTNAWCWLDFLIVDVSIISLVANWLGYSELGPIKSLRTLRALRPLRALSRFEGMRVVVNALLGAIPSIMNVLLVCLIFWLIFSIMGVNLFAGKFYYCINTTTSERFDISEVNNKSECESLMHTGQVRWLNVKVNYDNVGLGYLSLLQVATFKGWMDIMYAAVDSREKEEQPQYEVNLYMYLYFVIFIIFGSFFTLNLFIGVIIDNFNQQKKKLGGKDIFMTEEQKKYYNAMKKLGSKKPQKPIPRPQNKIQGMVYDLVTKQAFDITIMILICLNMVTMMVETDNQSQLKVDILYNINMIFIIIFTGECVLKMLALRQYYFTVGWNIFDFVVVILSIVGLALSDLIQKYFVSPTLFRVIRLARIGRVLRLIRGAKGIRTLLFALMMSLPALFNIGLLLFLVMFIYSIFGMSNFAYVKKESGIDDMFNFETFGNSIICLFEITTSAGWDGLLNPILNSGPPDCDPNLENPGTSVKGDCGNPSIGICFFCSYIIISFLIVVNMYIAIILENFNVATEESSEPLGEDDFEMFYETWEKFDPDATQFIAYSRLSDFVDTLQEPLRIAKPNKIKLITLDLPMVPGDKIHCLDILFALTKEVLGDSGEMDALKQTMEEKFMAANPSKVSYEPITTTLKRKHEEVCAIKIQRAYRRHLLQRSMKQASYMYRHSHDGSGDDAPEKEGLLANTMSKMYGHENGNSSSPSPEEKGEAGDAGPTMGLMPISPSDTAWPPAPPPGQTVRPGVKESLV
T5 sequence (Q14524 whole entry): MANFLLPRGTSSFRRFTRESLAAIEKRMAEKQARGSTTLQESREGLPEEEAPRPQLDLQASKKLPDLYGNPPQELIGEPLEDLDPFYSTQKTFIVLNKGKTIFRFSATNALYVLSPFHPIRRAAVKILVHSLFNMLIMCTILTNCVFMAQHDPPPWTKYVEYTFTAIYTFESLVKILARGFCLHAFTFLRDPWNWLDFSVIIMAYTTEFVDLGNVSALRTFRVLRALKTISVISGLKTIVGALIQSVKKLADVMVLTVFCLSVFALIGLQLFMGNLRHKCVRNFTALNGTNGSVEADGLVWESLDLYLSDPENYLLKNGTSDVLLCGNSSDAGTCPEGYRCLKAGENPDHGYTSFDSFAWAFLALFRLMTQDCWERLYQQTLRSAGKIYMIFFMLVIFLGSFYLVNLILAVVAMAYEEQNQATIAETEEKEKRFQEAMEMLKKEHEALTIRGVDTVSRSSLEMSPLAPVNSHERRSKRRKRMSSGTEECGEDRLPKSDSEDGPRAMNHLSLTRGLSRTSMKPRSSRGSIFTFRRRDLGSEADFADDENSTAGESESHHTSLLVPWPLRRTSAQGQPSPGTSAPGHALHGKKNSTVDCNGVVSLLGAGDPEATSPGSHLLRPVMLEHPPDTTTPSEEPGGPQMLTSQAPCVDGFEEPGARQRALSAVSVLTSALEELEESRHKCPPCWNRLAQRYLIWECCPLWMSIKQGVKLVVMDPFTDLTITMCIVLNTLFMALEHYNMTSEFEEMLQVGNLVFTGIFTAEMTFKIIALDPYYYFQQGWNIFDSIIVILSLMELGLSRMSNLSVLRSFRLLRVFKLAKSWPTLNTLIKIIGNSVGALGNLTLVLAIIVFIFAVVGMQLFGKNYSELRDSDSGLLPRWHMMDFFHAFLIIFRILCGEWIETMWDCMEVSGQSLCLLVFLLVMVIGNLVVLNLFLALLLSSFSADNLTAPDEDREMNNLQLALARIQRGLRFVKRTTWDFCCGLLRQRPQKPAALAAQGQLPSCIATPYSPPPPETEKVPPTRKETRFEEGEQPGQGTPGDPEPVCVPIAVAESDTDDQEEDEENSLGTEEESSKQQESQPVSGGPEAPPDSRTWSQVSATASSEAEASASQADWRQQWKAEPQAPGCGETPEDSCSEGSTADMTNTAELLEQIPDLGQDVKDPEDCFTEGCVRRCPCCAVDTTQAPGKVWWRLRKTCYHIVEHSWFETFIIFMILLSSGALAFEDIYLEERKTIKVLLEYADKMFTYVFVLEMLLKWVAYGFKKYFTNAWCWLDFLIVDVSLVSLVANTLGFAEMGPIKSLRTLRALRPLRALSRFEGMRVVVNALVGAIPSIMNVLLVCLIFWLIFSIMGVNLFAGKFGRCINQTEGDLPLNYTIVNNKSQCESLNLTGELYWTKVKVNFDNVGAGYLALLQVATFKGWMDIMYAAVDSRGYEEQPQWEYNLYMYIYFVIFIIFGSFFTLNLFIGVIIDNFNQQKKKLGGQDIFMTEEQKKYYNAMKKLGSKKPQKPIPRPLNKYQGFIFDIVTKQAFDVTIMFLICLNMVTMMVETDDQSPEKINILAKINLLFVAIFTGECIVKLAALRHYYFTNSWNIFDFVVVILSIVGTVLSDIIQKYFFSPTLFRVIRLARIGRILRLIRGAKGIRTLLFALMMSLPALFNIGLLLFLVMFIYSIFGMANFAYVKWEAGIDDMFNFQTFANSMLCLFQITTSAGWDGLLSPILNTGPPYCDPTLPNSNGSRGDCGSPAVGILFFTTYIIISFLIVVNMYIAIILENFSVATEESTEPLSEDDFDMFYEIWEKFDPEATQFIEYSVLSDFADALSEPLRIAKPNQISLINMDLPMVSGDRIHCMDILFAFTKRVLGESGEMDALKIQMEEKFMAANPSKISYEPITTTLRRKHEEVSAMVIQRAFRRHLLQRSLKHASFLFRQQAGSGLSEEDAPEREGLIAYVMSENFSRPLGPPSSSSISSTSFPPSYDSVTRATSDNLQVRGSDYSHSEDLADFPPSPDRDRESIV

Compound	visibility / accumulation in resected sciatic nerves (mouse sciatic nerve; i.v. 4 nmol Hs1a-FL alone, epifluorescence)	radiant efficiency of resected sciatic nerves (mouse sciatic nerve; i.v. Hs1a-FL 4 nmol (45 μM in 100 μL PBS), with or without Hs1a 12 nmol (120 μM), IVIS, ex 710/45 nm, em 800–820 nm, mean ± SD, n = 3 mice, Hs1a-FL vs co-injection unpaired t test p < 0.001)	radiant efficiency, brain ([1]; i.v. 4 nmol in 100 μL PBS, IVIS, ex 710/45 nm, em 800–820 nm, mean ± SD, n = 3, PBS group 0.001 ± 0.0005 × 10^7)	radiant efficiency, liver ([1]; i.v. 4 nmol in 100 μL PBS, IVIS, ex 710/45 nm, em 800–820 nm, mean ± SD, n = 3, PBS group 0.002 ± 0.001 × 10^7)	radiant efficiency, kidney ([1]; i.v. 4 nmol in 100 μL PBS, IVIS, ex 710/45 nm, em 800–820 nm, mean ± SD, n = 3, PBS group 0.005 ± 0.004 × 10^7)	liver accumulation ([1]; mouse, i.v. 4 nmol)	binding to NaV1.7 on the surface of human and mouse nerves (NaV1.7; abstract statement)	binding to NaV1.7 channels in vivo (NaV1.7; post-intravenous injection, mouse, blocked by excess dose of unlabeled Hs1a)	nerve-to-muscle contrast (nerve and muscle; epifluorescence visualization of sciatic mouse nerves, abstract statement)	nerve-to-muscle ratio (nerve and muscle; i.v. Hs1a-FL 4 nmol with or without Hs1a 12 nmol (block), 30 min post-injection, epifluorescence, mean ± SD, PBS 2.90 ± 2.76)	presence of Hs1a-FL signal in sciatic nerve by confocal microscopy [2]	affinity for neuronal sodium channels (neuronal sodium channels; ~22 °C)	IC50 range for neuronal NaV channels (neuronal sodium channels; NaV1.1, NaV1.2, NaV1.3, NaV1.6, NaV1.7)	IC50 (hNaV1.3) [nM]	IC50 (hNaV1.1) [nM]	IC50 (hNaV1.4; QPatch 16x automated whole-cell patch-clamp, holding potential -75 mV, five concentrations (2 nM to 10 μM), 0.1% BSA, pH 7.4, ~22 °C, each point average of 3–11 cells) [nM]	inhibition of NaV1.4 (hNaV1.4; [3])	IC50 (hNaV1.2) [nM]	IC50 (hNaV1.5; QPatch 16x automated whole-cell patch-clamp, holding potential -105 mV, five concentrations (2 nM to 10 μM), 0.1% BSA, pH 7.4, ~22 °C, each point average of 3–11 cells) [nM]	inhibition of NaV1.5 (hNaV1.5; [3])
Cy7.5@GNDCLGFWSACNPKNDKCCANLVCSSKHKWCKGKL (disulfide) [Hs1a-FL, NIR-labeled version of Hs1a, Hs1a conjugated to Cy7.5 dye]	clearly visible	1.6 ± 0.3 × 10^5 [p/s/cm^2/sr]/[μW/cm^2]	0.2 ± 0.1 × 10^7 [p/s/cm^2/sr]/[μW/cm^2]	3.0 ± 2.0 × 10^7 [p/s/cm^2/sr]/[μW/cm^2]	1.4 ± 1.1 × 10^7 [p/s/cm^2/sr]/[μW/cm^2]	high liver accumulation	specific and stable binding	specifically bind to NaV1.7 channels in vivo	favorable nerve-to-muscle contrast	4.83 ± 8.73 and ~ 4	confirmed the presence of Hs1a-FL signal	–	–	–	–	–	–	–	–	–
CC(C)C[C@H](NC(=O)[C@H](CCCCN)NC(=O)CNC(=O)[C@H](CCCCN)NC(=O)[C@@H]1CSSC[C@@H]2NC(=O)[C@H](CCCCN)NC(=O)[C@H](CC(=O)O)NC(=O)[C@H](CC(N)=O)NC(=O)[C@H](CCCCN)NC(=O)[C@@H]3CCCN3C(=O)[C@H](CC(N)=O)NC(=O)[C@@H]3CSSC[C@H](NC(=O)[C@H](C(C)C)NC(=O)[C@H](CC(C)C)NC(=O)[C@H](CC(N)=O)NC(=O)[C@H](C)NC(=O)[C@H](CSSC[C@H](NC(=O)[C@H](CC(=O)O)NC(=O)[C@H](CC(N)=O)NC(=O)CN)C(=O)N[C@@H](CC(C)C)C(=O)NCC(=O)N[C@@H](Cc4ccccc4)C(=O)N[C@@H](Cc4c[nH]c5ccccc45)C(=O)N[C@@H](CO)C(=O)N[C@@H](C)C(=O)N3)NC2=O)C(=O)N[C@@H](CO)C(=O)N[C@@H](CO)C(=O)N[C@@H](CCCCN)C(=O)N[C@@H](Cc2c[nH]cn2)C(=O)N[C@@H](CCCCN)C(=O)N[C@@H](Cc2c[nH]c3ccccc23)C(=O)N1)C(=O)O [Hs1a]	–	–	–	–	–	–	–	–	–	–	–	low nanomolar affinity	low nanomolar range	107	19.4	> 3000	did not inhibit	82.2	> 3000	did not inhibit
